Results as given in ChEMBL document CHEMBL1123331, “Synthesis of pyrimidin-2-one nucleosides as acid-stable inhibitors of cytidine deaminase” (J Med Chem, 1986).

Tests used:
Cytidine deaminase = Cytidine deaminase (Mus musculus, UniProt P56389); experiment: Compound was tested for the inhibitory constant for mouse kidney cytidine deaminase
Adenosine deaminase = biological target: T1, Adenosine deaminase (Mus musculus, UniProt P03958); experiment: Compound was tested for the inhibitory constant for adenosine deaminase (ADA)
T1 sequence (P03958 whole entry): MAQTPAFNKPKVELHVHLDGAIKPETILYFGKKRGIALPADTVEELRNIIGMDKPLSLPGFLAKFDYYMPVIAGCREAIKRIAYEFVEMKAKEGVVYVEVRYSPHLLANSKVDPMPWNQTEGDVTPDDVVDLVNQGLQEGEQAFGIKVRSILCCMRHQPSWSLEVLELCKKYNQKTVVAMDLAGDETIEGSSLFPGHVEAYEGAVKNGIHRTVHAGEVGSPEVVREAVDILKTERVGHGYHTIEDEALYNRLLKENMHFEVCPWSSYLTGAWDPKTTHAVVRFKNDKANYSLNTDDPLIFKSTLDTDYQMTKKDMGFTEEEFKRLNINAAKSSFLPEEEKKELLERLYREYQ

Sequence of Cytidine deaminase (P56389 whole entry): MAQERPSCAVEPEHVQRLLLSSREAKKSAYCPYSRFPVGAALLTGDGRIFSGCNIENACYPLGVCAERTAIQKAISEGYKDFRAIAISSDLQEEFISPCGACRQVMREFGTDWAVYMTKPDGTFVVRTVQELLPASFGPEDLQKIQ

SMILES | Ki (Cytidine deaminase) [µM] | Ki (Adenosine deaminase) [µM]
O=C1NC(C(O)O)CCN1C1O[C@H](CO)[C@@H](O)[C@H]1O (stereo partly drawn) | 20 | –
O=C1NCC=CN1[C@@H]1O[C@H](CO)[C@@H](O)[C@H]1O | 4 | –
O=c1ncccn1[C@@H]1O[C@H](CO)[C@@H](O)[C@H]1O [ZEBULARINE] | – | 1
OC[C@H]1O[C@@H](n2cnc3cncnc32)[C@H](O)[C@@H]1O [NEBULARINE] | 10 | –
O=C1NC=CCN1C1O[C@H](CO)[C@@H](O)[C@H]1O (stereo partly drawn) | 4 | –
O=c1nc(CO)ccn1C1O[C@H](CO)[C@@H](O)[C@H]1O (stereo partly drawn) | 100 | –
O=C1NC(CO)C=CN1C1O[C@H](CO)[C@@H](O)[C@H]1O (stereo partly drawn) | 0.4 | –
OCC1NC=Nc2c1ncn2[C@@H]1O[C@H](CO)[C@@H](O)[C@H]1O (stereo partly drawn) | 10 | –
